The values that follow come from BindingDB's records for patent US10100058 (Gilead Sciences, 2018).

Structures are written as SMILES.

Calcium/calmodulin-dependent protein kinase type II subunit delta, sequence (Q13557 whole entry): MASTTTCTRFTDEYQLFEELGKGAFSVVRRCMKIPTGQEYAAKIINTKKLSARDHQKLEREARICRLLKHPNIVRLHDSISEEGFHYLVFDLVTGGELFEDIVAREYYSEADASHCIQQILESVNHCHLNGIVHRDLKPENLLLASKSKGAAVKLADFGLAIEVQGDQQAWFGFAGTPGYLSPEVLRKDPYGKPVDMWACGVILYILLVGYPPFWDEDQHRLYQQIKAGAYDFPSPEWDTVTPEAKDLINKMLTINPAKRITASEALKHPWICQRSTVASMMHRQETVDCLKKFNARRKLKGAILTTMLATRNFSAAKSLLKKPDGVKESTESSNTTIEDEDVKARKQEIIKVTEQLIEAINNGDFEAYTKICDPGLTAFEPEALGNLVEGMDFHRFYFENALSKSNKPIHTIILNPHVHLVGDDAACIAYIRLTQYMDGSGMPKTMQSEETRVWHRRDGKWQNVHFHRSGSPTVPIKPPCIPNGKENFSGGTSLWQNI

The test deals with Calcium/calmodulin-dependent protein kinase type II subunit delta (Homo sapiens, UniProt Q13557). Briefly: CaMKII delta Biochemical Assay. How it is done:
The biochemical activity of recombinant CaMKIIδ was measured by monitoring the phosphorylation of a target peptide using Homogenous Time Resolved Fluorescence (HTRF) technology from CisBio Bioassays.
`CCC(N)CNC(=O)c1ccnc(-c2cnn3ccc(-c4cccs4)nc23)c1` (stereo not drawn) [US10100058, Example 25]: the IC50 is 8.62 nM.

In the case of `CCN(CC)[C@@H](CO)CNC(=O)c1ccnc(-c2cnn3ccc(-c4ccccc4)nc23)c1` [US10100058, Example 58], the IC50 was determined as 3.35 nM.

Take `CC(C)(N)CNC(=O)c1ccnc(-c2cnn3ccc(-c4ccccc4)nc23)c1` [US10100058, Example 64]: the IC50 is 99.9 nM.

Regarding `CCN(CC)[C@@H](C)CNC(=O)c1cc(-c2cnn3ccc(-c4cccs4)nc23)nc(N2CC(NS(=O)(=O)Cc3ccon3)C2)c1` [US10100058, Example 175], the IC50 worked out at 0.24 nM.

As for `CCN(CC)[C@@H](C)CNC(=O)c1cc(-c2cnn3ccc(-c4cccs4)nc23)nc(N2CC[C@H]2C(=O)NCCO)c1` [US10100058, Example 297], the half-inhibitory concentration (IC50) amounted to 0.33 nM.

Turning to `CN(CCn1ccnc1)c1cc(C(=O)N2CC3CCC(C2)NC3)cc(-c2cnn3ccc(-c4cccs4)nc23)n1` (stereo not drawn) [US10100058, Example 321], the IC50 stood at 9.11 nM.

In the case of `COC1CN(c2cc(C(=O)N3CC[C@H](N)C3)cc(-c3cnn4ccc(-c5cccs5)nc34)n2)C1` [US10100058, Example 327], the IC50 stood at 9.25 nM.

For `CCN(CC)[C@@H](C)CNC(=O)c1cc(OCCN(C)C)nc(-c2cnn3ccc(-c4cccs4)nc23)c1` [US10100058, Example 347], the half-inhibitory concentration (IC50) is 0.1 nM.
